Test results taken from patent publication US20170190705A1, “Compositions and Methods for Inhibiting BMP” (THE BRIGHAM AND WOMAN'S HOSPITAL, INC., priority 2014, published 2017).

Key:
Assay type in all cases: biochemical
[1] = target: CDK2/cyclinA (Homo sapiens, UniProt P24941); experiment: Kinome profiling CDK2/cyclinA; conditions: read-out: Inhibitory activity CDK2/cyclinA; for inhibition at 0.1 µM: 100 nM
Method: (§1) . The kinome-wide selectivity was determined following the methods previously reported by Mohedas et al., ACS Chem Biol 2013, 8, 1291-1302 and Sanvitale et al., PLoS One 2013, 8, e62721.

[2] = target: TYK2 (Homo sapiens, UniProt P29597); experiment: Kinome profiling TYK2; conditions: read-out: Inhibitory activity TYK2; for inhibition at 0.1 µM: 100 nM
Method: as §1

[3] = target: T1, TNK1 (Homo sapiens, UniProt Q13470); experiment: Kinome profiling TNK1; conditions: read-out: Inhibitory activity TNK1; for inhibition at 0.1 µM: 100 nM
T1 sequence (Q13470 1-666): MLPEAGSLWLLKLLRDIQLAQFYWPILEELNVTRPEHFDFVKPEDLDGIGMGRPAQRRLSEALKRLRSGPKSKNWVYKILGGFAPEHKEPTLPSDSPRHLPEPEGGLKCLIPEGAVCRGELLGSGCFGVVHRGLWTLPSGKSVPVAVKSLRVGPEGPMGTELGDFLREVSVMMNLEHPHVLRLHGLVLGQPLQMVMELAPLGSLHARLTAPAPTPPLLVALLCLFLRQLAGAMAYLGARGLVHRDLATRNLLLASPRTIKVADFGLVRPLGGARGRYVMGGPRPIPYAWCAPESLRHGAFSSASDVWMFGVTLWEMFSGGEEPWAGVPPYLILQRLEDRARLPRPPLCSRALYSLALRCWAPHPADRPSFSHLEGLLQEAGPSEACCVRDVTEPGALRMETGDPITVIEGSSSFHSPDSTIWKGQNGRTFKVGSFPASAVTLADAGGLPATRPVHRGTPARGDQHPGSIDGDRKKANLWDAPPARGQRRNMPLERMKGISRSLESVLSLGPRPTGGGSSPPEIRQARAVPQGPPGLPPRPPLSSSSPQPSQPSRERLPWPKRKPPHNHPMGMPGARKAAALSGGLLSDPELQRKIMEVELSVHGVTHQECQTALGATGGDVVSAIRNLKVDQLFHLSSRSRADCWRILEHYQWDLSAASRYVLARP
Method: as §1

[4] = target: PKC-α (Homo sapiens, UniProt P17252); experiment: Kinome profiling PKC-α; conditions: read-out: Inhibitory activity PKC-α; for inhibition at 0.1 µM: 100 nM
Method: as §1

[5] = target: T2, IKK-β (Homo sapiens, UniProt O14920); experiment: Kinome profiling IKK-β; conditions: read-out: Inhibitory activity IKK-β; for inhibition at 0.1 µM: 100 nM
T2 sequence (O14920 1-756): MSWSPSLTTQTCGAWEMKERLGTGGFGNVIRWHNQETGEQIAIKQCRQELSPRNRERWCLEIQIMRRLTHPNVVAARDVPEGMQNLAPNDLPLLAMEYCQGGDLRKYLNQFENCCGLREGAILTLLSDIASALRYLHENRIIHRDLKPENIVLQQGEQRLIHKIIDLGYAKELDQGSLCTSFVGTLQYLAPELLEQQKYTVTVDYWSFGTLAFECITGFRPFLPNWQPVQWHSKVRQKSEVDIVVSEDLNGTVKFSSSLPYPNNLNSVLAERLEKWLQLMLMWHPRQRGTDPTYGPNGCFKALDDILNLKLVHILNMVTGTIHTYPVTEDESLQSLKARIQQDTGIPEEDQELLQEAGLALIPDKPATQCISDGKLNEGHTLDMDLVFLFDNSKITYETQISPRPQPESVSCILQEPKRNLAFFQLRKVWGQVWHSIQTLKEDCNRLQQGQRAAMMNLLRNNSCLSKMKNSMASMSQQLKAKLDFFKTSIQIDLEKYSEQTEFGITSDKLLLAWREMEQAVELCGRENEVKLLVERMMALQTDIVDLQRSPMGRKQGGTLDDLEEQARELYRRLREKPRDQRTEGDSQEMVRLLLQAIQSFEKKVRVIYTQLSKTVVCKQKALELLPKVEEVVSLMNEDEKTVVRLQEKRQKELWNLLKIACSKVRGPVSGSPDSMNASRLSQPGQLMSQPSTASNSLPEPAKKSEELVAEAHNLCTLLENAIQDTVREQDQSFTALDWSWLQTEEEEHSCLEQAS
Method: as §1

[6] = target: TRKC (Homo sapiens, UniProt Q16288); experiment: Kinome profiling TRKC; conditions: read-out: Inhibitory activity TRKC; for inhibition at 0.1 µM: 100 nM
Method: as §1

[7] = target: T3, BMX (Homo sapiens, UniProt P51813); experiment: Kinome profiling BMX; conditions: read-out: Inhibitory activity BMX; for inhibition at 0.1 µM: 100 nM
T3 sequence (P51813 1-675): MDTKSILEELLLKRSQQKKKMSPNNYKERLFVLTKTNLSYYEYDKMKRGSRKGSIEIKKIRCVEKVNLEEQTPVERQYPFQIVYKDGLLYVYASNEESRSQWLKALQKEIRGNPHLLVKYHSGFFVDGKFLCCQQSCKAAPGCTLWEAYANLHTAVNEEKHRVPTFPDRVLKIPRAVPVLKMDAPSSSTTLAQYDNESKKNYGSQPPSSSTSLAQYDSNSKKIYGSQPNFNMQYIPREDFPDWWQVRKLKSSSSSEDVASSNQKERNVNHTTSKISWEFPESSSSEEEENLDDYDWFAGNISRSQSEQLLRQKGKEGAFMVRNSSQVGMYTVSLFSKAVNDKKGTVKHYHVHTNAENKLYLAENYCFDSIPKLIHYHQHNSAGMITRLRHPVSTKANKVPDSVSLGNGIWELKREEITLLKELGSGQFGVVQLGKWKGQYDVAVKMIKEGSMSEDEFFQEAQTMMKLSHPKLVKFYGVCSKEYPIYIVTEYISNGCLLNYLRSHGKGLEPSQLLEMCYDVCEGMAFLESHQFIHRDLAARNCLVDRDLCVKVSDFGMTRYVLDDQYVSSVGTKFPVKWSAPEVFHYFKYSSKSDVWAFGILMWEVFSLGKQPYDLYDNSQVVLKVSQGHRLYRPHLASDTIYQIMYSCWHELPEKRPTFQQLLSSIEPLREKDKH
Method: as §1

[8] = target: ALK2 (Homo sapiens, UniProt Q04771); experiment: Kinome profiling ALK2; conditions: Table 4, read-out: Inhibitory Activity ALK2
Method: as §1

[9] = target: RIPK2 (Homo sapiens, UniProt O43353); experiment: Kinome profiling RIPK2; conditions: Table 4, read-out: Inhibitory Activity RIPK2
Method: as §1

TYK2, sequence (P29597 whole entry): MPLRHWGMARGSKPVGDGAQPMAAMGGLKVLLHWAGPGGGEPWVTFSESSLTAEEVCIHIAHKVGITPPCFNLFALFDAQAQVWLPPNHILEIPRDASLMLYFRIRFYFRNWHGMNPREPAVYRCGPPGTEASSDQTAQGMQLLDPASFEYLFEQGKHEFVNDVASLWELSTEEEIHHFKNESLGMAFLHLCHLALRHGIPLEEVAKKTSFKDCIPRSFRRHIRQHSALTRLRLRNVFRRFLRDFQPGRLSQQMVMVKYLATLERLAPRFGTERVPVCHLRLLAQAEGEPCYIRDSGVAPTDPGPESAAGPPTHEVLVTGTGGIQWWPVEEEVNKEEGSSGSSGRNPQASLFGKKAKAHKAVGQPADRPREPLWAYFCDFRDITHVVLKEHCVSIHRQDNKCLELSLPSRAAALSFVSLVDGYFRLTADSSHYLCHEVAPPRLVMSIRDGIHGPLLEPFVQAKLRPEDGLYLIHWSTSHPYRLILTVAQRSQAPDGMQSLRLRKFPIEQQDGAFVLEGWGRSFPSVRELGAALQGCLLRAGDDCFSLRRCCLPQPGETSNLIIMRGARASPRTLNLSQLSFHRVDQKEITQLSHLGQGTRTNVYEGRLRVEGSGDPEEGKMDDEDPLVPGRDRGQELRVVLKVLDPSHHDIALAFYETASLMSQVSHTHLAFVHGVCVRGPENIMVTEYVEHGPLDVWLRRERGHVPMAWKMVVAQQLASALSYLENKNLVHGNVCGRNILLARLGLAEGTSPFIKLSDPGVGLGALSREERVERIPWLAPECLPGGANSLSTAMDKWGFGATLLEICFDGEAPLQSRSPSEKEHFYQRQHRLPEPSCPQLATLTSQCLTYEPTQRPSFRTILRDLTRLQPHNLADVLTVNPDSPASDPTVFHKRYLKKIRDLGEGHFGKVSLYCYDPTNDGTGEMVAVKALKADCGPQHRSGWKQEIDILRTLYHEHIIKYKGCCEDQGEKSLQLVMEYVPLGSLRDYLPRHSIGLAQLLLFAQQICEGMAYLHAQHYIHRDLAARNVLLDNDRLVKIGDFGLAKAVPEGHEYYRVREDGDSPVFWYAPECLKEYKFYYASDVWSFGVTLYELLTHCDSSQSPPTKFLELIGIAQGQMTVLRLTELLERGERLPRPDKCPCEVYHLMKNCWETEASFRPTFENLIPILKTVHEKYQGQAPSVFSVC
TRKC, sequence (Q16288 32-839): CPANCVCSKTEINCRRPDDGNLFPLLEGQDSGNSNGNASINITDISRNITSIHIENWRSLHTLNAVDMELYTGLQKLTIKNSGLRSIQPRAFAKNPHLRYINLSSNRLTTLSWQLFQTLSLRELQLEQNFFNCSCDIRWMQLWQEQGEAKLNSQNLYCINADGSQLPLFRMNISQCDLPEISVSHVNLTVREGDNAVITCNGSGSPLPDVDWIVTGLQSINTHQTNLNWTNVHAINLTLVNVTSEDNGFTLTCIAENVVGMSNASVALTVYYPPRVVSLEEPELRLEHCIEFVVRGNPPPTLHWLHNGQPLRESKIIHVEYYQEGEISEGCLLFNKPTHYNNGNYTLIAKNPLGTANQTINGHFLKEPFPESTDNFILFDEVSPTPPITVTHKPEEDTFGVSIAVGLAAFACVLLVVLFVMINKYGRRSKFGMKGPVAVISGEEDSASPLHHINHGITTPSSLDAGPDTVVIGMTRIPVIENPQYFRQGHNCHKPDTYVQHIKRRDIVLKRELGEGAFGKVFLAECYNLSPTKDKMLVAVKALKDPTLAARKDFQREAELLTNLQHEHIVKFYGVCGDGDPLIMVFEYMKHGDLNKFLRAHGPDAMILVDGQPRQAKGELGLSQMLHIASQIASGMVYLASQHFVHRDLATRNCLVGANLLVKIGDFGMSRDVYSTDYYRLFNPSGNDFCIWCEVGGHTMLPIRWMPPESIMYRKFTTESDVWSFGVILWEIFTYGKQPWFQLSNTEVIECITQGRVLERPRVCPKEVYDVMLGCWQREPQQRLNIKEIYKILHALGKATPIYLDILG
ALK2, sequence (Q04771 21-509): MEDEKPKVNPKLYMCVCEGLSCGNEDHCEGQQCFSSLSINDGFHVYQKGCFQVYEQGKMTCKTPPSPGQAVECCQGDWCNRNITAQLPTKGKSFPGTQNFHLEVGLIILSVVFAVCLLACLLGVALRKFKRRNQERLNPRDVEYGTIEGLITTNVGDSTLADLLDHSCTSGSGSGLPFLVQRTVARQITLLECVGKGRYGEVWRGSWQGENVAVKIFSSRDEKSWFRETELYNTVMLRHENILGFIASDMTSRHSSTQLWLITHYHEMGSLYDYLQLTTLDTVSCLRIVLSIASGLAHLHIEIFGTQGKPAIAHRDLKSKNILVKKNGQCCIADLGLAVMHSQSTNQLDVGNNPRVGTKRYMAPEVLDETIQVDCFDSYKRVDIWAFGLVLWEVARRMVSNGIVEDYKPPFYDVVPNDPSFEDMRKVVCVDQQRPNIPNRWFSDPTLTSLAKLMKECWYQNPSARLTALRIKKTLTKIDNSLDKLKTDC
RIPK2, sequence (O43353 whole entry): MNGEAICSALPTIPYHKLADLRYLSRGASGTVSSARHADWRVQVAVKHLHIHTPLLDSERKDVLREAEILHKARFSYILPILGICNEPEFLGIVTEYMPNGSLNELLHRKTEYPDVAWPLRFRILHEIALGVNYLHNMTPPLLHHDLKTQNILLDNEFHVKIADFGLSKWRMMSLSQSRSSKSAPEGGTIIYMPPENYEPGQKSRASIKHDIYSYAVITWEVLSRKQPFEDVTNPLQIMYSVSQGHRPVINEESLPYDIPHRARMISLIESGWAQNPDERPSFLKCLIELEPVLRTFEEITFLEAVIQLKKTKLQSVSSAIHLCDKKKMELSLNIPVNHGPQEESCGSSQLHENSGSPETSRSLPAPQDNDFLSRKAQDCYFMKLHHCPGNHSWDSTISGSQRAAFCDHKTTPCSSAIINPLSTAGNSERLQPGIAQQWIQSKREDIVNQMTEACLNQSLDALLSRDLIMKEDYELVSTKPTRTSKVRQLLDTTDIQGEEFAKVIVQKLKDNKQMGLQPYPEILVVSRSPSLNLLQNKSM

| Structure (SMILES) | inhibition at 0.1 µM [1] | inhibition at 1 µM [1] | inhibition at 0.1 µM [2] | inhibition at 1 µM [2] | inhibition at 0.1 µM [3] | inhibition at 1 µM [3] | inhibition at 0.1 µM [4] | inhibition at 1 µM [4] | inhibition at 0.1 µM [5] | inhibition at 1 µM [5] | inhibition at 0.1 µM [6] | inhibition at 1 µM [6] | inhibition at 0.1 µM [7] | inhibition at 1 µM [7] | inhibition at 0.1 µM ([8]; 100 nM) | inhibition at 1 µM ([8]; 1 μM) | inhibition at 0.1 µM ([9]; 100 nM) | inhibition at 1 µM ([9]; 1 μM) |
| --- | --- | --- | --- | --- | --- | --- | --- | --- | --- | --- | --- | --- | --- | --- | --- | --- | --- | --- |
| COc1cc(-c2cc(-c3ccc(N4CCNCC4)cc3)cnc2N)cc(OC)c1OC [Compound 15, 5-(4-(piperazin-1-yl)phenyl)-3-(3,4,5-trimethoxyphenyl)pyridin-2-amine] | 1% | 2% | 0% | 0% | 2% | 16% | 1% | 6% | 1% | 3% | 3% | 3% | 5% | 30% | – | – | – | – |
| COc1cc(-c2cc(-c3ccc(N4CCNCC4)cc3)cnc2C)cc(OC)c1OC [Compound 10, 1-(4-(6-methyl-5-(3,4,5-trimethoxyphenyl)pyridin-3-yl)phenyl)piperazine] | 4% | 1% | 2% | 1% | 5% | 2% | 2% | 3% | 2% | 2% | 4% | 4% | 7% | 11% | 67% | 99% | 71% | 97% |
